This assay addresses ROCK2 (Homo sapiens (Human), UniProt O75116). Put plainly: Rho-kinase inhibition ELISA (ROCK active-II, MYPT1 substrate). The assay is classed as biochemical. To be noted: classes given as pIC50, ATP 250 μM. The method, then: To measure Rho-kinase inhibition, IC50 values were determined according to the following ELISA protocol:
ROCK Substrate Coated Plate (Part No 241601): One strip well 96-well plate pre-coated with recombinant MYPT1.
Buffer: 25 mM Tris, pH 7.5, 10 mM MgCl2, 5 mM Glycerol-2-Phosphate, 0.1 mM Na3VO4; 1% DMSO; 2.5 mM DTT; (Enzyme: ROCK active-II) (Cell Biolabs, Catalog #STA-406, Part No. 241505) 0.1 ng/μl.
ATP Solution (Part No. 241604): 100 mM ATP. Final concentration of ATP in reaction mixture: 250 μM.
Secondary Antibody, HRP Conjugate (Part No. 231003).
Biotinylated substrate, diluted to 0.25 μM with buffer described above (without ATP).
1. Purified kinase or cell lysate sample can be used directly in the kinase assay or further diluted with 1× Kinase Buffer. Each sample should be assayed in duplicate.
2. Add 90 μL of the diluted active ROCK-II positive control or unknown ROCK samples to the wells of the substrate plate.
3. Initiate the kinase reaction by adding 10 μL of the 10× Kinase Reaction Buffer containing DTT and ATP. Mix well.
4. Cover with a plate cover and incubate the wells at 30° C. for 30-60 minutes with gentle agitation.
5. Stop kinase reaction by flicking out the content or by adding 50 μL of 0.5M EDTA, pH 8.0, to each well.
6. Remove the plate cover and empty wells. Wash microwell strips 3 times with 250 μL 1× Wash Buffer per well with thorough aspiration between each wash. After the last wash, empty wells and tap microwell strips on absorbent pad or paper towel to remove excess 1× Wash Buffer.
7. Add 100 μL of the diluted anti-phospho-MYPT1 (Thr696) antibody to each well.
8. Cover with the plate cover and incubate at room temperature for 1 hour on an orbital shaker.
9. Remove the plate cover and empty wells. Wash the strip wells 3 times according to step 6 above.
10. Add 100 μL of the diluted HRP-conjugated secondary antibody to each well.
11. Cover with the plate cover and incubate at room temperature for 1 hour on an orbital shaker.
12. Remove the plate cover and empty wells. Wash microwell strips 3 times according to step 6 above. Proceed immediately to the next step.
13. Warm Substrate Solution to room temperature. Add 100 μL of Substrate Solution to each well, including the blank wells. Incubate at room temperature for 5-20 minutes on an orbital shaker.
14. Stop the enzyme reaction by adding 100 μL of Stop Solution into each well, including the blank wells. Results should be read immediately (color will fade over time).
15. Read absorbance of each microwell on a spectrophotometer using 450 nm as the primary wave length.
The given activity (shown in Table 1 and Table 2) is denoted as the negative logarithm of the IC50 (pIC50) as follows: […]

The results in this text go back to patent publication US10696638B2, “Compounds for inhibiting AGC kinase and pharmaceutical compositions comprising the same” (Industrial Technology Research Institute, priority 2017, dated 2020).

pIC50: −log10 of the molar value. Read-outs that look alike come from different tables or passages of the source.

Sequence of ROCK2 (O75116 whole entry, species assumed): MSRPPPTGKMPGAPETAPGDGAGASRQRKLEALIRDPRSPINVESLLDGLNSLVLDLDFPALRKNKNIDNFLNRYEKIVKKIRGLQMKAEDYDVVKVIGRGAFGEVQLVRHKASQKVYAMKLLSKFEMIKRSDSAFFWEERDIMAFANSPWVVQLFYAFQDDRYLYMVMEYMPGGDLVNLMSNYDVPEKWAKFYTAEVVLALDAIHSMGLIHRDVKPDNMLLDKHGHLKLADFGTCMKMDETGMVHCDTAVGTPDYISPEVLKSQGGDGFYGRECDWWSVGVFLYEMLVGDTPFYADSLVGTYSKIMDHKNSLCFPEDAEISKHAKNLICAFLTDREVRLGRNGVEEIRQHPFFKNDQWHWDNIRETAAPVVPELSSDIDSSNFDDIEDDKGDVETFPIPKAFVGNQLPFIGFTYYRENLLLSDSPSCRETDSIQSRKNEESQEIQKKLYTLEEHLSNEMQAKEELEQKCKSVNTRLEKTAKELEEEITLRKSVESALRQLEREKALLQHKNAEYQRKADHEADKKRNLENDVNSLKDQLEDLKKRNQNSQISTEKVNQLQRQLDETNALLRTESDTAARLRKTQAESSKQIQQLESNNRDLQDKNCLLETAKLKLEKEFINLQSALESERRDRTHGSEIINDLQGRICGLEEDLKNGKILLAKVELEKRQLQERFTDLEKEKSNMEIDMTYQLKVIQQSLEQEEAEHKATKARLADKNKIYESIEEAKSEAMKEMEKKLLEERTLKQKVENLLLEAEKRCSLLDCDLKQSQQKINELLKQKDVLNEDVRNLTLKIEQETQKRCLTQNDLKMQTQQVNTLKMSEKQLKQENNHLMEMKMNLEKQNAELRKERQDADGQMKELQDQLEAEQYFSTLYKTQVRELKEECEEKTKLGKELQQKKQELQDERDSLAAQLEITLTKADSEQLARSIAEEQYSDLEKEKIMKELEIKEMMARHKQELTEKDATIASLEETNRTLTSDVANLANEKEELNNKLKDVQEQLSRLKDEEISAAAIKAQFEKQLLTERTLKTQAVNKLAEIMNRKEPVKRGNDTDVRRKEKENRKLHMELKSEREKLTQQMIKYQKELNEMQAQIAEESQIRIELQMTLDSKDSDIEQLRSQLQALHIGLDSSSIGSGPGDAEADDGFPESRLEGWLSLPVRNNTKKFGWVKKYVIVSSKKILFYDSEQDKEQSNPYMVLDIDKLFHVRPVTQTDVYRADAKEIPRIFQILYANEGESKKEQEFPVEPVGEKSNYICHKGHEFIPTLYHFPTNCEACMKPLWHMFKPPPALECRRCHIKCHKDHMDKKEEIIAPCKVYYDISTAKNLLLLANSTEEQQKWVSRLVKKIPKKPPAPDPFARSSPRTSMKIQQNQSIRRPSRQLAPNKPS

With `CN(C)CCN(Cc1ccc(Cl)cc1)C(=O)Nc1ccc2cnccc2c1` [compound 1], the pIC50 (as a rule, the negative decadic logarithm of the IC50, by convention in mol/L) (Table 1, read-out: ROCK2 IC50) is 7.00 to 8.00.
Still for that read-out and setting: for `CN(C)CCN(Cc1ccc(F)cc1)C(=O)Nc1ccc2cnccc2c1` [compound 2] the value was 7.00 to 8.00; for `COc1cccc(CN(CCN(C)C)C(=O)Nc2ccc3cnccc3c2)c1` [compound 3], 6.00 to 7.00.
Take `COc1cccc(CN(CCO)C(=O)Nc2ccc3cnccc3c2)c1` [compound 4]: where the note is “Table 1, read-out: ROCK2 IC50”, the negative logarithm of the IC50 (pIC50) is 6.00 to 7.00.
With `CN(C)CCN(Cc1ccccc1)C(=O)Nc1cccc2cnccc12` [compound 6], the pIC50 (Table 2, read-out: ROCK IC50) is 6.00 to 7.00.
Turning to `O=C(Nc1ccc2cnccc2c1)N[C@@H](CO)c1ccccc1` [compound 6], the negative logarithm of the IC50 (pIC50) (Table 1, read-out: ROCK2 IC50) is 7.00 to 8.00.
With `CN(C)CCN(Cc1ccc(Cl)cc1)C(=O)Nc1cccc2cnccc12` [compound 7], the pIC50 (Table 2, read-out: ROCK IC50) is 6.00 to 7.00.
For `CN(C)CCN(Cc1cccc(F)c1)C(=O)Nc1ccc2cnccc2c1` [compound 8], the negative-log IC50 (pIC50) (Table 1, read-out: ROCK2 IC50) is 6.00 to 7.00.
In the case of `NCCN(Cc1ccc(F)cc1)C(=O)Nc1ccc2cnccc2c1` [compound 8], the pIC50 (Table 2, read-out: ROCK IC50) is 6.00 to 7.00.
For `COC(=O)c1ccc(CN(CCN(C)C)C(=O)Nc2cccc3cnccc23)cc1` [compound 10], the “ROCK IC50” value (Table 2) was “+ (pIC50<6.0)”.
For the compound `CN(C)CCN(Cc1ccc(F)cc1)C(=S)Nc1cccc2cnccc12` [compound 11], under “Table 2, read-out: ROCK IC50”, the pIC50 was 6.00 to 7.00.
Consider `CN(C)CCN(Cc1ccc(CO)cc1)C(=S)Nc1cccc2cnccc12` [compound 12], for which, for the setting “Table 2”, the “ROCK IC50” value was “+ (pIC50<6.0)”.
In the case of `NCCN(Cc1ccc(O)cc1)C(=O)Nc1ccc2cnccc2c1` [compound 13], the “ROCK IC50” value (Table 2) is “+ (pIC50<6.0)”.
Regarding `NCCN(Cc1ccccc1)C(=O)Nc1ccc2cnccc2c1` [compound 14], the negative logarithm of the IC50 (pIC50) (Table 2, read-out: ROCK IC50) is 6.00 to 7.00.
Same read-out and setting: with `NCCN(Cc1ccc(Br)cc1)C(=O)Nc1ccc2cnccc2c1` [compound 15] the figure was 6.00 to 7.00.
Consider `NCCN(Cc1cccc(F)c1)C(=O)Nc1ccc2cnccc2c1` [compound 16], for which, for the setting “Table 2, read-out: ROCK IC50”, the pIC50 is 6.00 to 7.00.
Regarding `CSc1ccc(CN(CCN)C(=O)Nc2ccc3cnccc3c2)cc1` [compound 17], the “ROCK IC50” value (Table 2) was “+ (pIC50<6.0)”.
On the same count and under the same terms, for `COC(=O)c1ccc(CN(CCN)C(=O)Nc2ccc3cnccc3c2)cc1` [compound 18] the value was “+ (pIC50<6.0)”.
Take `NCCN(Cc1ccc(F)cc1)C(=S)Nc1ccc2cnccc2c1` [compound 19]: the pIC50 (Table 2, read-out: ROCK IC50) is 6.00 to 7.00.
Take `NCCN(Cc1ccc(F)cc1)C(=O)Nc1cccc2cnccc12` [compound 20]: the “ROCK IC50” value (Table 2) was “+ (pIC50<6.0)”.
Regarding `CC(c1ccc(F)cc1)N(CCN)C(=O)Nc1ccc2cnccc2c1` (centres unmarked) [compound 22], for the setting “Table 2, read-out: ROCK IC50”, the negative logarithm of the IC50 (pIC50) was 6.00 to 7.00.
On the same count and under the same terms, for `CC(c1ccc(F)cc1)N(CCN)C(=O)Nc1ccc2cnccc2c1` (centres unmarked) [compound 23] the value was 7.00 to 8.00.
`NCC(NC(=S)Nc1ccc2cnccc2c1)c1ccccc1` (centres unmarked) [compound 24]: the “ROCK IC50” value (Table 2) is on record as “++++ (pIC50>8.0)”.
The same measure, in the same setting: with `NCC(NC(=O)Nc1ccc2cnccc2c1)c1ccc(F)cc1` (centres unmarked) [compound 25] the entry was “++++ (pIC50>8.0)”; with `NCC(NC(=S)Nc1ccc2cnccc2c1)c1ccc(F)cc1` (centres unmarked) [compound 26], “++++ (pIC50>8.0)”.
For `NCCN(Cc1ccccc1)C(=S)Nc1ccc2cnccc2c1` [compound 27], where the note is “Table 2, read-out: ROCK IC50”, the negative logarithm of the IC50 (pIC50) is 6.00 to 7.00.
On the same count and under the same terms, with `NCCN(Cc1cccc(F)c1)C(=S)Nc1ccc2cnccc2c1` [compound 28] the figure was 6.00 to 7.00; with `N#C/N=C(/Nc1ccc2cnccc2c1)N(CCN)Cc1cccc(F)c1` [compound 29], 7.00 to 8.00; with `N#C/N=C(/Nc1ccc2cnccc2c1)N(CCN)Cc1ccc(F)cc1` [compound 30], 7.00 to 8.00.
Regarding `NCCN(Cc1ccc(Cl)cc1)C(=S)Nc1ccc2cnccc2c1` [compound 31], where the note is “Table 2”, the “ROCK IC50” value was “++++ (pIC50>8.0)”.
With `Cc1ccc(CN(CCN)C(=S)Nc2ccc3cnccc3c2)cc1` [compound 32], the negative logarithm of the IC50 (pIC50) (Table 2, read-out: ROCK IC50) is 6.00 to 7.00.
As for `NCCN(Cc1ccc(Cl)c(F)c1)C(=S)Nc1ccc2cnccc2c1` [compound 33], under “Table 2, read-out: ROCK IC50”, the pIC50 is 6.00 to 7.00.
`N#C/N=C(\Nc1ccc2cnccc2c1)N(CCN)Cc1ccc(Br)cc1` [compound 34]: the pIC50 (Table 2, read-out: ROCK IC50) was 7.00 to 8.00.
As for `COc1cccc(C(CN)NC(=S)Nc2ccc3cnccc3c2)c1` (centres unmarked) [compound 35], for the setting “Table 2”, the “ROCK IC50” value is “++++ (pIC50>8.0)”.
`N#C/N=C(/Nc1ccc2cnccc2c1)N(CCN)Cc1ccccc1` [compound 36]: the “ROCK IC50” value (Table 2) is “++++ (pIC50>8.0)”.
On to `COc1ccc(CN(CCN)/C(=N\C#N)Nc2ccc3cnccc3c2)cc1` [compound 37], for which the “ROCK IC50” value (Table 2) was “++++ (pIC50>8.0)”.
In the case of `NCCN(Cc1cccc(Cl)c1)C(=S)Nc1ccc2cnccc2c1` [compound 38], under “Table 2, read-out: ROCK IC50”, the pIC50 was 7.00 to 8.00.
On to `Cl.NCC(NC(=S)Nc1ccc2cnccc2c1)c1cccc2ccccc12` (centres unmarked) [compound 39], for which, under “Table 2”, the “ROCK IC50” value is “++++ (pIC50>8.0)”.
